Data taken from patent publication US10844077B2, “Thiazolyl-containing compounds for treating proliferative diseases” (Dana-Farber Cancer Institute, Inc., priority 2014, dated 2020).
Where “and” joins values, the source holds several entries; their conditions need not be identical. Identical values can stand only once.

Legend:
Test in all cases: KINATIV assay
Assay type in all cases: cell-based
Settings in all cases: 1 μM, 90 minutes, BCWM.1 cells
STLK5 = STLK5 (Homo sapiens (Human), UniProt Q7RTN6)
Experimental: (§1) The cells were harvested and lysed. The lysates were directly labeled with an ATP-biotin probe. Bound kinases were identified and quantitated by ACTIVX as described in Patricelli et al., Biochemistry, 2007, 46(2): 350-358. The compounds were tested in duplicates against duplicate or quadruplicate control samples.

CK1a = CK1a (Homo sapiens (Human), UniProt P48729)
Experimental: as §1

TAO1, TAO3 = tested on: TAO1, TAO3
Experimental: as §1

ITPK1 = ITPK1 (Homo sapiens (Human), UniProt Q13572)
Experimental: as §1

GCN2 = GCN2 (Homo sapiens (Human), UniProt Q9P2K8)
Experimental: as §1

NEK2 = NEK2 (Homo sapiens (Human), UniProt P51955)
Experimental: as §1

TBK1 = TBK1 (Homo sapiens (Human), UniProt Q9UHD2)
Experimental: as §1

MST2 = MST2 (Homo sapiens (Human), UniProt Q13188)
Experimental: as §1

MAP3K6 = MAP3K6 (Homo sapiens (Human), UniProt O95382)
Experimental: as §1

Erk2 = Erk2 (Homo sapiens (Human), UniProt P28482)
Experimental: as §1

IKKe, TBK1 = tested on: IKKe, TBK1
Experimental: as §1

Wnk1, Wnk2, Wnk4 = tested on: Wnk1, Wnk2, Wnk4
Experimental: as §1

BRAF = BRAF (Homo sapiens (Human), UniProt P15056)
Experimental: as §1

Wnk1, Wnk2, Wnk3 = tested on: Wnk1, Wnk2, Wnk3
Experimental: as §1

MSK1, MSK2 domain1 = tested on: MSK1, MSK2 domain1
Experimental: as §1

ULK1 = ULK1 (Homo sapiens (Human), UniProt O75385)
Experimental: as §1

EphB1 = EphB1 (Homo sapiens (Human), UniProt P54762)
Experimental: as §1

AurB = AurB (Homo sapiens (Human), UniProt Q96GD4)
Experimental: as §1

PIP4K2C = PIP4K2C (Homo sapiens (Human), UniProt Q8TBX8)
Experimental: as §1

MST1 = MST1 (Homo sapiens (Human), UniProt Q13043)
Experimental: as §1

MAP3K2 = MAP3K2 (Homo sapiens (Human), UniProt Q9Y2U5)
Experimental: as §1

OSR1 = OSR1 (Homo sapiens (Human), UniProt O95747)
Experimental: as §1

TLK2 = TLK2 (Homo sapiens (Human), UniProt Q86UE8)
Experimental: as §1

RSKL1 = RSKL1 (Homo sapiens (Human), UniProt Q96S38)
Experimental: as §1

PIK3CB = PIK3CB (Homo sapiens (Human), UniProt P42338)
Experimental: as §1

MARK2 = MARK2 (Homo sapiens (Human), UniProt Q7KZI7)
Experimental: as §1

IRE1 = IRE1 (Homo sapiens (Human), UniProt O75460)
Experimental: as §1

AurA, AurB, AurC = tested on: AurA, AurB, AurC
Experimental: as §1

KHS1 = KHS1 (Homo sapiens (Human), UniProt Q9Y4K4)
Experimental: as §1

RSK4 domain1 = RSK4 domain1 (Homo sapiens (Human), UniProt Q9UK32)
Experimental: as §1

MASTL = MASTL (Homo sapiens (Human), UniProt Q96GX5)
Experimental: as §1

p38b = p38b (Homo sapiens (Human), UniProt Q15759)
Experimental: as §1

MLKL = MLKL (Homo sapiens (Human), UniProt Q8NB16)
Experimental: as §1

MSK2 domain1 = MSK2 domain1 (Homo sapiens (Human), UniProt O75676)
Experimental: as §1

RSK1, RSK2, RSK3 domain1 = tested on: RSK1, RSK2, RSK3 domain1
Experimental: as §1

CK1g2 = CK1g2 (Homo sapiens (Human), UniProt P78368)
Experimental: as §1

TAO2 = TAO2 (Homo sapiens (Human), UniProt Q9UL54)
Experimental: as §1

PIP5K3 = PIP5K3 (Homo sapiens (Human), UniProt Q9Y2I7)
Experimental: as §1

SRC = SRC (Homo sapiens (Human), UniProt P12931)
Experimental: as §1

CDK4 = CDK4 (Homo sapiens (Human), UniProt P11802)
Experimental: as §1

ULK3 = ULK3 (Homo sapiens (Human), UniProt Q6PHR2)
Experimental: as §1

Sequence of PIP4K2C (Q8TBX8 whole entry): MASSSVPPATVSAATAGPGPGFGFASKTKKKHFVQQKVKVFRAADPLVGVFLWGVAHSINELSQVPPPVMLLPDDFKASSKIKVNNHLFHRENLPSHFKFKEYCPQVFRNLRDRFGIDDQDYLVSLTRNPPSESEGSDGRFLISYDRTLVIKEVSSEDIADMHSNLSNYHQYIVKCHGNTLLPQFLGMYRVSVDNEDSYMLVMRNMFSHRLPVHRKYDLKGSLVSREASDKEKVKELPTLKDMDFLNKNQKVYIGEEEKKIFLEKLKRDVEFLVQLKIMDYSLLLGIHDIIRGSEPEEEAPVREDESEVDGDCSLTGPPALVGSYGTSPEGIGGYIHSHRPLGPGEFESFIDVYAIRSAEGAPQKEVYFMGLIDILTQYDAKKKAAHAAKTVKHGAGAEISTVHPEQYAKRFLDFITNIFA
Sequence of MASTL (Q96GX5 whole entry): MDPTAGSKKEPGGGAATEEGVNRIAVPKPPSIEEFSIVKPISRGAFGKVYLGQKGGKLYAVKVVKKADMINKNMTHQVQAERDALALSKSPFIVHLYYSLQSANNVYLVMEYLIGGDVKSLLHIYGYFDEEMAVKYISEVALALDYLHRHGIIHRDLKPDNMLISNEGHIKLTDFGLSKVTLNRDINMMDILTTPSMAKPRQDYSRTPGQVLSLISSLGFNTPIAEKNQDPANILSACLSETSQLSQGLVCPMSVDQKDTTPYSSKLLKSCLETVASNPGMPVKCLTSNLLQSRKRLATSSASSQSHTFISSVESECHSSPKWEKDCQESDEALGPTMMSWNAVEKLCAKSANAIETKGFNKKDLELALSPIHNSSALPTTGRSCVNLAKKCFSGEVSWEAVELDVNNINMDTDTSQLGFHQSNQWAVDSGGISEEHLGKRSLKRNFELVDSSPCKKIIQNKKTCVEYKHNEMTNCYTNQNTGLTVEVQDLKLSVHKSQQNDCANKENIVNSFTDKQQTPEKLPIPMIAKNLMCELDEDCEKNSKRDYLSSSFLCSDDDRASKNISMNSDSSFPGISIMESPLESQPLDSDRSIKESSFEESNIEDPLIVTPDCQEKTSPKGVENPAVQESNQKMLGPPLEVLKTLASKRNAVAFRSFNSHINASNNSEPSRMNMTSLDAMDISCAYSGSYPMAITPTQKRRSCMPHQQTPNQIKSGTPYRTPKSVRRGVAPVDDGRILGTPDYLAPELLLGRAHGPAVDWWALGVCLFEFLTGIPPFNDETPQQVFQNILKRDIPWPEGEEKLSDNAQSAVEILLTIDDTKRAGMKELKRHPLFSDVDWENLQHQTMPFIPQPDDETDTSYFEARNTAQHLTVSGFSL
Sequence of GCN2 (Q9P2K8 whole entry): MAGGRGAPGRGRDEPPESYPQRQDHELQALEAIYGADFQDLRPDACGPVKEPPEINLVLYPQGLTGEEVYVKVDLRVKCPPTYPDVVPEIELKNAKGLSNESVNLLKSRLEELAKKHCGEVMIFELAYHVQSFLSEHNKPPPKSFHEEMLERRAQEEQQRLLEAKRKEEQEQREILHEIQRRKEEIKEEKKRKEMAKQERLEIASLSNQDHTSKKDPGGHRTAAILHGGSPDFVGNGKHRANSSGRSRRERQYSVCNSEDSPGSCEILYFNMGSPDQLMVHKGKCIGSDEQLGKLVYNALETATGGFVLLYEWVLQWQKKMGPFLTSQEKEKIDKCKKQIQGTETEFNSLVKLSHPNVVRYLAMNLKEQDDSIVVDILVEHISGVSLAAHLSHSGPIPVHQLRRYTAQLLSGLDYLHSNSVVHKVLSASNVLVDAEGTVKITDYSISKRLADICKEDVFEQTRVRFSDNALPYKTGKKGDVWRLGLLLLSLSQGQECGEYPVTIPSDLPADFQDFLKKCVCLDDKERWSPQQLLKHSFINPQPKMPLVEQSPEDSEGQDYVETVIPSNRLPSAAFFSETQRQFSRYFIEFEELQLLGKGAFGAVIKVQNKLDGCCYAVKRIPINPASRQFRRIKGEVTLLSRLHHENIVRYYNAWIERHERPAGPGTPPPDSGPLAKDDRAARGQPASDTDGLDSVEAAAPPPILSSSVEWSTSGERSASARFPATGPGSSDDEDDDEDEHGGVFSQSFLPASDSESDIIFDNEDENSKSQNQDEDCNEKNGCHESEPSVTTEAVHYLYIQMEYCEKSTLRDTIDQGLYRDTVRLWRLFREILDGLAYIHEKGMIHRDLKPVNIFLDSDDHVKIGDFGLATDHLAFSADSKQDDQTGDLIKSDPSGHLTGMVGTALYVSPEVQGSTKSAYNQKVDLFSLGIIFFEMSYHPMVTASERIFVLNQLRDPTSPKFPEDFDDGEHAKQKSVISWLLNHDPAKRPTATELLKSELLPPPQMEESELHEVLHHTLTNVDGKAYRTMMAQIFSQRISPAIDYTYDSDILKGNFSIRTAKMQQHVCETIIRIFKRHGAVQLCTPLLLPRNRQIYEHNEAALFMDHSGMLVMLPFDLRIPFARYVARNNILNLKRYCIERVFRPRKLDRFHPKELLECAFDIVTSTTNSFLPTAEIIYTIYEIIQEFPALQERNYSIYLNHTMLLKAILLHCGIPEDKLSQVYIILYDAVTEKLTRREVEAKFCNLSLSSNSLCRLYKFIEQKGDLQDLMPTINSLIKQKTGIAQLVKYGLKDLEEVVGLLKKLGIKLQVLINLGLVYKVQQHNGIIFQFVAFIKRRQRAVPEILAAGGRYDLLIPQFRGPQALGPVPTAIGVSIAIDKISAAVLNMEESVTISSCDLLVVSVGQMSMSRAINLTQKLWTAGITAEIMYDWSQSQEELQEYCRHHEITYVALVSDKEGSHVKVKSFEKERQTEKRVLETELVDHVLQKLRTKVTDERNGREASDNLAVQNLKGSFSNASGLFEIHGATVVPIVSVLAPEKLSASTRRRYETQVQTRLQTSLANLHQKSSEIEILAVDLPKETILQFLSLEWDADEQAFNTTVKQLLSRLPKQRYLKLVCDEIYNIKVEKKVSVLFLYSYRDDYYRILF
Sequence of CK1a (P48729 whole entry): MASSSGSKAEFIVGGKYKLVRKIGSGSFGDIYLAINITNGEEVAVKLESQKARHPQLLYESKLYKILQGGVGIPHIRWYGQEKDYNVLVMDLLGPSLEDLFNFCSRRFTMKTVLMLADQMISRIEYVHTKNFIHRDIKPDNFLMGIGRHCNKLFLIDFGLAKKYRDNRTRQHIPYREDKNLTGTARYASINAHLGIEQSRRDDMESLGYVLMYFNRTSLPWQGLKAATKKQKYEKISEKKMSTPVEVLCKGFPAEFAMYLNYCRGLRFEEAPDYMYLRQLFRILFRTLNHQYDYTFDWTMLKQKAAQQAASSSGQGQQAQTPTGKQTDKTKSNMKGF
Sequence of MLKL (Q8NB16 whole entry): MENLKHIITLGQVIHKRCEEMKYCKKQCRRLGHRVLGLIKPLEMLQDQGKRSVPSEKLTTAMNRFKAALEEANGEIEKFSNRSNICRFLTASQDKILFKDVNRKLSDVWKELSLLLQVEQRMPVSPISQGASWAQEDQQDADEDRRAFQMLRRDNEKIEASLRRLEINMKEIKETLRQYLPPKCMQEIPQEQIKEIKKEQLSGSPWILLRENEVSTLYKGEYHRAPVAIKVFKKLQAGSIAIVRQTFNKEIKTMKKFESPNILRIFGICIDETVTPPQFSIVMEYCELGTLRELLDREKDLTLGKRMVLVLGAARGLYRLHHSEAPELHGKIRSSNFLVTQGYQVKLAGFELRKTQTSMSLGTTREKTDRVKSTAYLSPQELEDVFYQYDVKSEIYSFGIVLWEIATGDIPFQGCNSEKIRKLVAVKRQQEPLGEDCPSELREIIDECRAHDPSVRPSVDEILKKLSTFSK
Sequence of OSR1 (O95747 whole entry): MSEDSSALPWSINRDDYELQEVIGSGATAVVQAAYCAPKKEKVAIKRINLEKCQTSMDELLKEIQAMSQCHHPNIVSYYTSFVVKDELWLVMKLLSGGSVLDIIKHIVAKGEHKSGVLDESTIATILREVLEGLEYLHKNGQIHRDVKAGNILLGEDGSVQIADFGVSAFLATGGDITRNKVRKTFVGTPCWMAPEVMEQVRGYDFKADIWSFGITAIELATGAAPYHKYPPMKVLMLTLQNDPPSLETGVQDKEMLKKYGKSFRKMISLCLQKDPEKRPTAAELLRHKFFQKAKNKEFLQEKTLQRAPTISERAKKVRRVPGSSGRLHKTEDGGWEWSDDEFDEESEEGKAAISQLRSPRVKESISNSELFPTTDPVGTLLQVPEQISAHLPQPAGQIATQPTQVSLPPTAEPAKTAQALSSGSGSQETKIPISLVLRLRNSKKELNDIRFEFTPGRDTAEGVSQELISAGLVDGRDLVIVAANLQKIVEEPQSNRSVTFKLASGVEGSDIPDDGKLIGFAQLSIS
Sequence of SRC (P12931 whole entry, looked up): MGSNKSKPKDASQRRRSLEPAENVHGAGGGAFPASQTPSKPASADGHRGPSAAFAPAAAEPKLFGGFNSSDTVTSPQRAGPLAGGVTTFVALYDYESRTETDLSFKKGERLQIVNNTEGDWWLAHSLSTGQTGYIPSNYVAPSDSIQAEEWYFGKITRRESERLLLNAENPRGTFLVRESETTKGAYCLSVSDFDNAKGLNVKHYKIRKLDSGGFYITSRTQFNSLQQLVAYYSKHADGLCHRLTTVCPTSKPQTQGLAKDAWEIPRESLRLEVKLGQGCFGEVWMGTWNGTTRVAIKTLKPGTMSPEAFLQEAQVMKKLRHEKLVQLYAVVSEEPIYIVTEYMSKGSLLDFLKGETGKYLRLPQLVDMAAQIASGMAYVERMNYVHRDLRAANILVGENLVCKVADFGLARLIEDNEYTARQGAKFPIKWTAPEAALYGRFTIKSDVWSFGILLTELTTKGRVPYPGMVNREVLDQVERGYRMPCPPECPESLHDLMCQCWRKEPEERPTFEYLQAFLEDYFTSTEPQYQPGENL

| Structure (SMILES) | % change of MS signal compared to control sample (CK1a) [%] | % change of MS signal compared to control sample (TAO1, TAO3) [%] | % change of MS signal compared to control sample (ITPK1) [%] | % change of MS signal compared to control sample (GCN2) | % change of MS signal compared to control sample (NEK2) [%] | % change of MS signal compared to control sample (TBK1) [%] | % change of MS signal compared to control sample (MST2) [%] | % change of MS signal compared to control sample (MAP3K6) [%] | % change of MS signal compared to control sample (Erk2) [%] | % change of MS signal compared to control sample (IKKe, TBK1) [%] | % change of MS signal compared to control sample (Wnk1, Wnk2, Wnk4) [%] | % change of MS signal compared to control sample (BRAF) [%] | % change of MS signal compared to control sample (Wnk1, Wnk2, Wnk3) [%] | % change of MS signal compared to control sample (MSK1, MSK2 domain1) [%] | % change of MS signal compared to control sample (ULK1) [%] | % change of MS signal compared to control sample (EphB1) [%] | % change of MS signal compared to control sample (AurB) [%] | % change of MS signal compared to control sample (PIP4K2C) | % change of MS signal compared to control sample (MST1) [%] | % change of MS signal compared to control sample (MAP3K2) [%] | further results |
| --- | --- | --- | --- | --- | --- | --- | --- | --- | --- | --- | --- | --- | --- | --- | --- | --- | --- | --- | --- | --- | --- |
| C=CC(=O)N1CCC(CNc2nccc(Nc3ncc(C(=O)Nc4c(C)cccc4C)s3)n2)C1 (racemic) [Example I-8] | 14.9 | −8.7 | −16.4 | −20.3% and −13.6% | −3.0 | −2.9 | 4.3 | −8.1 | −0.1 | 5.5 | −16.3 | 11.1 | 1.7 | −29.7 | 16.1 | >97 | −14.3 | 97.6% and 85.7% | 2.4 | 3.5 | % change of MS signal compared to control sample (STLK5): 1.1% and −4.0%; % change of MS signal compared to control sample (OSR1): 27.9%; % change of MS signal compared to control sample (TLK2): 9.4%; % change of MS signal compared to control sample (RSKL1): 35.0%; % change of MS signal compared to control sample (PIK3CB): −10.1%; % change of MS signal compared to control sample (MARK2): 12.1%; % change of MS signal compared to control sample (IRE1): −1.5%; % change of MS signal compared to control sample (AurA, AurB, AurC): −2.9%; % change of MS signal compared to control sample (KHS1): −8.4%; % change of MS signal compared to control sample (RSK4 domain1): −8.2%; % change of MS signal compared to control sample (MASTL): −16.9% and −9.5%; % change of MS signal compared to control sample (p38b): 12.0%; % change of MS signal compared to control sample (MLKL): −17.5%; % change of MS signal compared to control sample (MSK2 domain1): −47.7%; % change of MS signal compared to control sample (RSK1, RSK2, RSK3 domain1): −55.6%; % change of MS signal compared to control sample (CK1g2): −6.1%; % change of MS signal compared to control sample (TAO2): −4.9%; % change of MS signal compared to control sample (PIP5K3): 4.2%; % change of MS signal compared to control sample (SRC): >90%; % change of MS signal compared to control sample (CDK4): 6.1% |
| C=CC(=O)N1CCCCC(Nc2nccc(Nc3ncc(C(=O)Nc4c(C)cccc4C)s3)n2)C1 (centres unmarked) [Example I-7] | −0.7 | −1.8 | −17.5 | −13.3% and −6.3% | 8.5 | −39.7 | 6.5 | −21.3 | −4.7 | −10.7 | −6.6 | 21.7 | 10.4 | −40.4 | 19.3 | >97 | −6.1 | 70.9% and 60.1% | 3.0 | 4.9 | % change of MS signal compared to control sample (ULK3): 15.5% and 18.4%; % change of MS signal compared to control sample (OSR1): 22.0%; % change of MS signal compared to control sample (TLK2): 7.3%; % change of MS signal compared to control sample (RSKL1): 29.7%; % change of MS signal compared to control sample (PIK3CB): −42.6%; % change of MS signal compared to control sample (MARK2): 7.7%; % change of MS signal compared to control sample (IRE1): −15.7%; % change of MS signal compared to control sample (AurA, AurB, AurC): 0.4%; % change of MS signal compared to control sample (KHS1): −5.9%; % change of MS signal compared to control sample (RSK4 domain1): −13.5%; % change of MS signal compared to control sample (MASTL): −10.9% and −13.8%; % change of MS signal compared to control sample (p38b): −1.5%; % change of MS signal compared to control sample (MLKL): −6.3%; % change of MS signal compared to control sample (MSK2 domain1): −45.3%; % change of MS signal compared to control sample (RSK1, RSK2, RSK3 domain1): −58.3%; % change of MS signal compared to control sample (CK1g2): −3.7%; % change of MS signal compared to control sample (TAO2): −18.0%; % change of MS signal compared to control sample (PIP5K3): 4.3%; % change of MS signal compared to control sample (SRC): >90%; % change of MS signal compared to control sample (CDK4): 16.7% |
